Values quoted from earlier work as cited in patent publication US10336750B2, “Composition and methods for the treatment of CaMKK2-mediated disorders” (Duke University, priority 2015, dated 2019).

Tested on: neovascular remodeling (NVR) in experimental laser-induced CNV
Details: aged (16 month-old) mice, systemic depletion of macrophages, compared to sham control

In the case of `O=P(O)(O)C(Cl)(Cl)P(=O)(O)O` [clodronate], the “NVR phenotype, lesion size and fibrosis (choroidal flatmounts by FITC-dextran)” value is listed as “abrogation of the NVR phenotype, resulting in smaller lesions with less fibrosis”.
